# Measurements from article PMC11249646, “Small-Molecule Disruptors of the Interaction between Calcium- and Integrin-Binding Protein 1 and Integrin αIIbβ3 as Novel Antiplatelet Agents” (ACS Pharmacology & Translational Science, 2024).
# Where two headings read alike, the source gives them in different places.
# What was measured:
# [1] = target: T1, CIB1 and αIIb interaction (GST-CIB1 : F-αIIb peptide) (Homo sapiens, UniProt Q99828); assay: FP assay, 384-well format (screen); assay type: binding; design: 384-well SCREEN Efficacy (%): concentration or dose not given beside the values
# T1 construct: made in house; host or cells: BL-21 plus RIL cells (E. coli)
# T1 sequence (Q99828 1-191): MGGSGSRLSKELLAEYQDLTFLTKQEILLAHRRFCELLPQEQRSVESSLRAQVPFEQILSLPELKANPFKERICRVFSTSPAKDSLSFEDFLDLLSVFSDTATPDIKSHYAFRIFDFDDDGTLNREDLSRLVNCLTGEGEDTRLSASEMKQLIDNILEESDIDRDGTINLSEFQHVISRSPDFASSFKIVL
# [2] = target: T2, CIB1 and αIIb interaction (CIB1-GST : F-αIIb peptide) (Homo sapiens, UniProt Q99828); assay: FP assay, 1536-well qHTS format (primary and confirmatory screen); assay type: binding; settings: for CONFIRMATORY SCREEN Confirm?: YES/NO call; for CONFIRMATORY SCREEN Curve Class / Curve Class (confirmatory screen): qHTS curve class; for CONFIRMATORY SCREEN Curve Class / Curve Class / Curve Class (confirmatory screen): negative sign = inhibitory curve; for CONFIRMATORY SCREEN Efficacy (%) / Efficacy (%): negative = inhibition; for Confirm? (confirmatory screen): YES/NO
# T2 construct: made in house; host or cells: BL-21 plus RIL cells (E. coli)
# T2 sequence (Q99828 1-191): T1 sequence (Q99828 1-191)
# [3] = target: T3, GST-CIB1 : F-scrambled peptide (Homo sapiens, UniProt Q99828); assay: FP scrambled-peptide counter screen, 1536-well format; assay type: binding; settings: for COUNTERSCREEN Efficacy (%) / COUNTERSCREEN Confirm? / COUNTERSCREEN Curve Class: scrambled-peptide counterscreen; for COUNTERSCREEN Confirm?: YES/NO call; for COUNTERSCREEN Curve Class / Curve Class (counterscreen): qHTS curve class; for Curve Class (counterscreen): negative sign = inhibitory curve; for Efficacy (%) (counterscreen) / Curve Class (counterscreen) / IC50: counterscreen; for IC50: read-out: IC50 [μM] (counterscreen)
# T3 construct: made in house; host or cells: BL-21 plus RIL cells (E. coli)
# T3 sequence (Q99828 1-191): T1 sequence (Q99828 1-191)
# [4] = system: washed human platelets; assay: Human platelet aggregation assay (thrombin-induced); assay type: cell-based; settings: for inhibition at 10 µM: Homo sapiens, Platelet, single concentration of 10 μM (n = 3), thrombin; for Thrombin Assay 10 µM (%): platelet aggregation inhibition at 10 µM
# Source text: A classical challenge in target-based drug discovery is moving from biochemical to cellular assay and the essential step of determining if the compounds of interest can perform in a cellular context. After characterization of the compounds in a series of biochemical assay formats, our next step was to assess their activity in a cellular environment. Our previous studies have shown that the interaction of the cytoplasmic domain of integrin αIIbβ3, a key regulator of platelet aggregation, with CIB1, is involved in downstream signaling in platelet activation and aggregation. We sought to determine whether our candidate compounds were inhibiting this interaction by evaluating them for platelet function in a human platelet aggregation assay. We prepared platelet-rich plasma (PRP) and washed the platelets as previously described[44] and then performed a platelet aggregation assay using the washed platelet suspensions (2 × 10^8/platelets/mL) followed by the recording of aggregation traces (see Materials and Methods Section). To induce platelet aggregation, 0.03 U/mL of thrombin, a physiological agonist of platelet activation, was used.
# Figure 6 Effect of compounds on human platelet activation. Representative platelet aggregation tracings of washed human platelet suspensions pretreated for 30 min at 37 °C with vehicle (DMSO) or compounds at indicated concentrations followed by activation with thrombin (0.03–0.1 U/mL). Panel (A): NCGC00071855. Panel (B–D): NCGC00351170. Panel (E): CD62P exposure was in the presence of NCGC00351170. Data represents mean ± SEM, n = 4 individual experiments; ns = non significant *P < 0.05, ***P < 0.001, ****P < 0.0001.
# Whole blood was drawn by venipuncture from healthy adult volunteers (of both gender and race) with informed consent. Approval was obtained from the institutional review boards of Thomas Jefferson University, according to the Declaration of Helsinki. Blood was collected in acidified citrate dextrose as an anticoagulant. Platelet-rich plasma (PRP) and washed platelets were prepared, as previously described.[44] Platelet aggregation was performed using washed platelet suspensions containing 2 × 10^8 platelets/mL using a Chrono-Log Lumi-Aggregometer (Chrono-Log), as described previously.[11] Aggregation traces were recorded by using Aggrolink software (Chrono-Log). Thrombin-induced P-selectin (CD62P) exposure was performed using Accuri C6 flowcytometer (BD Bioscience) as described previously.[11]
# Figure S9: Effect of compounds on human platelet activation. Representative platelet aggregation
# tracings of washed human platelet suspensions treated with vehicle (DMSO) or indicated
# compounds at 10 μM for 30 minutes at 37 °C followed by activation with thrombin (0.03U/mL).
# [5] = In vitro ADME: solubility; assay type: physicochemical
# [6] = In vitro ADME: PAMPA permeability
# [7] = target: T3, GST-CIB1 : F-scrambled peptide; assay: FP scrambled-peptide counter screen, 384-well format; assay type: binding; settings: F-scrambled peptide
# [8] = target: T4, GST-CIB1:F-αIIb interaction (Homo sapiens, UniProt Q99828); assay: Gel-based (in-gel) binding assay; settings: 1 μM GST-CIB1, 400 nM F-αIIb; 60 μM, 1:2, 4-points
# T4 construct: made in house; host or cells: BL-21 plus RIL cells (E. coli)
# T4 sequence (Q99828 1-191): T1 sequence (Q99828 1-191)
# [9] = target: T5, GST-CIB1 : F-αIIb peptide (Homo sapiens, UniProt Q99828); assay: FP assay in the presence of glutathione (GSH), thiol reactivity; assay type: binding
# T5 construct: made in house; host or cells: BL-21 plus RIL cells (E. coli)
# T5 sequence (Q99828 1-191): T1 sequence (Q99828 1-191)
# [10] = 384-well FP assay, Table 1, read-out: FP assay IC50
# [11] = confirmatory screen, read-out: CONFIRMATORY SCREEN IC50
# [12] = qHTS primary screen hits, Table S2
# [13] = qHTS primary screen hits, Table S2, several classes where COUNT > 1
# [14] = qHTS primary screen hits, Table S2, read-out: IC50
# [15] = confirmatory screen, read-out: IC50 [μM] (confirmatory screen)
structure (smiles),measurement,setting,value
Cc1ccccc1C(=O)c1no[n+]([O-])c1C(=O)c1ccccc1C.O=C(O)C(F)(F)F [NCGC00351166-01],IC50,[1]; [10],4.26 µM
same,CONFIRMATORY SCREEN Confirm?,[2]; confirmatory screen,YES
same,CONFIRMATORY SCREEN Curve Class,[2]; confirmatory screen,-1.4
same,CONFIRMATORY SCREEN Efficacy (%),[2]; confirmatory screen,-39%
same,IC50,[2]; [11],12.6 µM
same,Efficacy (%),[2]; [12],-19%
same,Curve Class,[2]; [13],-2.4
same,IC50,[2]; [14],31.6 µM
same,COUNTERSCREEN Efficacy (%),[3],-24%
same,COUNTERSCREEN Confirm?,[3],YES
same,COUNTERSCREEN Curve Class,[3],4
same,inhibition at 10 µM,[4],77%
same,Thrombin Assay 10 µM (%),[4],77%
same,solubility,[5]; read-out: Solubility,2 µg/mL
same,Papp,[6],< 1 ×10⁻⁶ cm/s
O=C(c1cccc(OCc2ccccc2)c1)c1no[n+]([O-])c1C(=O)c1cccc(OCc2ccccc2)c1 [NCGC00351160-01],IC50,[1]; [10],20.7 µM
same,inhibition at 10 µM,[4],49%
same,Thrombin Assay 10 µM (%),[4],49%
same,solubility,[5]; read-out: Solubility,5 µg/mL
same,Papp,[6],5.74 ×10⁻⁶ cm/s
O=C(c1ccc(C(F)(F)F)cc1)c1no[n+]([O-])c1C(=O)c1ccc(C(F)(F)F)cc1 [NCGC00351164-01],IC50,[1]; [10],7.26 µM
same,inhibition at 10 µM,[4],98%
same,Thrombin Assay 10 µM (%),[4],98%
same,solubility,[5]; read-out: Solubility,> 64 µg/mL
same,Papp,[6],11 ×10⁻⁶ cm/s
O=C(O)C(F)(F)F.O=C(c1ccc(F)cc1)c1no[n+]([O-])c1C(=O)c1ccc(F)cc1 [NCGC00351162-01],Efficacy (%) (confirmatory screen),[2]; confirmatory screen,-69%
same,Confirm? (confirmatory screen),[2]; confirmatory screen,YES
same,Curve Class (confirmatory screen),[2]; confirmatory screen,-1.2
same,IC50,[2]; [15],12.6 µM
same,Efficacy (%) (counterscreen),[3],-68%
same,Curve Class (counterscreen),[3],-2.2
same,IC50,[3],35.5 µM
same,solubility,[5]; read-out: Solubility,> 49 µg/mL
same,Papp,[6],6.01 ×10⁻⁶ cm/s
O=C(c1ccc(F)cc1)c1no[n+]([O-])c1C(=O)c1ccc(F)cc1 [NCGC00351162-02],IC50,[1]; [10],7.5 µM
same,IC50,"[1]; log of IC50 in M (negative values), 384-well FP assay, read-out: FP Assay LOG IC50 (converted)",7.41 µM
same,Efficacy (%),[2]; [12],-58%
same,IC50,[2]; [14],26.6 µM
same,inhibition at 10 µM,[4],97%
same,Thrombin Assay 10 µM (%),[4],97%
same,solubility,[5]; read-out: Solubility,34 µg/mL
O=C(c1cccs1)c1no[n+]([O-])c1C(=O)c1cccs1 [NCGC00071855-06],solubility,[5],14 µg/mL
same,PAMPA,[6],153 10-6 cm/s
O=C(c1cccs1)c1no[n+]([O-])c1CO [NCGC00354607-01],inhibition at 10 µM,[4],14%
same,Thrombin Assay 10 µM (%),[4],14%
same,solubility,[5]; read-out: Solubility,23 µg/mL
same,Papp,[6],130 ×10⁻⁶ cm/s
O=C(O)C(F)(F)F.O=C(c1cccs1)c1no[n+]([O-])c1C(=O)c1cccs1 [NCGC00071855-05],Efficacy (%),[2]; [12],-48%
same,Curve Class,[2]; [13],-1.2
same,IC50,[2]; [14],11.6 µM
same,solubility,[5]; read-out: Solubility,18 µg/mL
same,Papp,[6],187 ×10⁻⁶ cm/s
O=C(c1ccccc1)c1no[n+]([O-])c1C(=O)c1ccccc1 [NCGC00351168-01],solubility,[5],> 43 µg/mL
same,PAMPA,[6],< 1 10-6 cm/s
"O=c1[nH]sc2cc(Cl)ccc12 [NCGC00262908-01, ticlatone, reference compound]",384-well SCREEN Efficacy (%),[1]; F-αIIb peptide,79%
same,384-well SCREEN Confirm?,"[1]; F-αIIb peptide, YES/NO",YES
same,IC50,"[1]; F-αIIb peptide, read-out: 384-well SCREEN IC50",0.562 µM
same,384-well COUNTERSCREEN Efficacy (%),[7],95%
same,384-well COUNTERSCREEN Confirm?,[7]; *: Curve in opposite direction,YES
same,IC50,[7]; read-out: 384-well COUNTERSCREEN IC50,> 120 µM
same,CONFIRMATORY SCREEN Confirm?,[2]; confirmatory screen,YES
same,CONFIRMATORY SCREEN Curve Class,[2]; confirmatory screen,-1.2
same,CONFIRMATORY SCREEN Efficacy (%),[2]; confirmatory screen,-50%
same,IC50,[2]; [11],2.8 µM
same,Efficacy (%),[2]; [12],-68%
same,Curve Class,[2]; [12],-1.2
same,IC50,[2]; [14],3.5 µM
same,COUNTERSCREEN Efficacy (%),[3],10%
same,COUNTERSCREEN Confirm?,[3],YES
same,COUNTERSCREEN Curve Class,[3],4
same,Active in Gel Assay?,[8],YES
same,IC50,"[9]; FP assay in the presence of glutathione (GSH +), read-out: GSH (+) Assay IC50",10.3 µM
same,IC50,"[9]; FP assay without glutathione (GSH -), read-out: GSH (-) Assay IC50",0.234 µM
same,GSH/CIB1 IC50 ratio,[9]; ratio of GSH (+) IC50 to GSH (-) IC50,44.0
same,shift in potency in the presence of GSH,[9]; with vs without 10 μM reduced GSH,right-shift in potency
Cc1ccc(C(=O)c2no[n+]([O-])c2C(=O)c2ccc(C)cc2)cc1.O=C(O)C(F)(F)F [NCGC00351163-01],IC50,[1]; [10],6.68 µM
same,Efficacy (%) (confirmatory screen),[2]; confirmatory screen,-51%
same,Confirm? (confirmatory screen),[2]; confirmatory screen,YES
same,Curve Class (confirmatory screen),[2]; confirmatory screen,-1.4
same,IC50,[2]; [15],5.6 µM
same,Efficacy (%),"[2]; qHTS FP screen hits, Table S2",-47%
same,Curve Class,"[2]; qHTS FP screen hits, Table S2, one class per curve where COUNT > 1",-1.2
same,IC50,"[2]; qHTS FP screen hits, Table S2, read-out: IC50",11.2 µM
same,Efficacy (%) (counterscreen),[3],-36%
same,Curve Class (counterscreen),[3],-1.2
same,IC50,[3],4 µM
same,inhibition at 10 µM,[4],96%
same,Thrombin Assay 10 µM (%),[4],96%
same,solubility,[5]; read-out: Solubility,12 µg/mL
